Measured values published in patent publication US20050136015A1, “Topical use of halosalicylic acid derivatives” (priority 2003, published 2005).

How the values were obtained:
Propionibacterium acnes = test: Zone of Inhibition Test; type: cell-based; details: for Diameter of Zone of Inhibition: P. acnes, 1000 μl, isopropyl palmitate solvent
[1] = system: Staphylococcus epidermidis; test: Zone of Inhibition Test; type: cell-based; details: S. epidermidis, 1000 μl, isopropyl palmitate solvent
Staphylococcus aureus = test: Zone of Inhibition Test; type: cell-based; details: S. aureus, 1000 μl, isopropyl palmitate solvent
Escherichia coli = test: Zone of Inhibition Test; type: cell-based; details: E. coli, 1000 μl, isopropyl palmitate solvent
Pseudomonas aeruginosa = test: Zone of Inhibition Test; type: cell-based; details: P. aeruginosa, 1000 μl, isopropyl palmitate solvent
Candida albicans = test: Zone of Inhibition Test; type: cell-based; details: C. albicans, 1000 μl, isopropyl palmitate solvent
Aspergillus niger = test: Zone of Inhibition Test; type: cell-based; details: A. niger, 1000 μl, isopropyl palmitate solvent
skin surface = test: Exfoliation (desquamation) activity, D-SQUAME skin surface sampling discs; type: in vivo; details: for D-SQUAME Score: scoring scale 0 to 5
From the text: D-SQUAME skin surface sampling Discs (CuDerm Corporation) were employed. The disc was applied to a clean, dry skin surface and pressed firmly for a few seconds using the thumb or fingertips. The disc was then transferred to a black square on the storage card. The disc was viewed at an angle with strong light and compared with 5 reference patterns provided by CuDerm Corporation. Very dry skin produces a heavy amount of scaling similar to pattern 5. Normal skin produces a few areas of small clumps of cells or a fine even single layer of cells. The scoring scale employed was as follows: [table] […] The vehicle was tested, as a control. The vehicle (ANEW All-In-One SPF-15 Self-Adjusting Perfecting Creme base without the glycolic acid) employed was the same in all cases, only the test compound(s) differed.

[2] = Skin irritation (PII) of test formulation; type: in vivo
[3] = system: all of the test microorganisms; test: MLC test, summary over all test microorganisms; type: cell-based; details: against all of the test microorganisms of Table 1
Salmonella typhimarium = details: literature report; cited from earlier work
[4] = 0.5% active in ANEW creme base vehicle
[5] = 0.5% active in ANEW creme base vehicle without glycolic acid

SMILES: O=C(O)c1ccccc1O [Salicylic Acid, salicylic acid]
- Diameter of Zone of Inhibition (Propionibacterium acnes; 0.83%): 0 Millimeters
- Diameter of Zone of Inhibition (Propionibacterium acnes; 1.66%): 15.39 Millimeters
- Diameter of Zone of Inhibition ([1]; 0.83%): 4.5 Millimeters
- Diameter of Zone of Inhibition ([1]; 1.66%): 13.62 Millimeters
- Diameter of Zone of Inhibition (Staphylococcus aureus; 0.83%): 0 Millimeters
- Diameter of Zone of Inhibition (Staphylococcus aureus; 1.66%): 6.38 Millimeters
- Diameter of Zone of Inhibition (Escherichia coli; 0.83%): 0 Millimeters
- Diameter of Zone of Inhibition (Escherichia coli; 1.66%): 3.67 Millimeters
- Diameter of Zone of Inhibition (Pseudomonas aeruginosa; 0.83%): 0 Millimeters
- Diameter of Zone of Inhibition (Pseudomonas aeruginosa; 1.66%): 0 Millimeters
- Diameter of Zone of Inhibition (Candida albicans; 0.83%): 4.6 Millimeters
- Diameter of Zone of Inhibition (Candida albicans; 1.66%): 11.16 Millimeters
- Diameter of Zone of Inhibition (Aspergillus niger; 0.83%): 0 Millimeters
- Diameter of Zone of Inhibition (Aspergillus niger; 1.66%): 6.72 Millimeters
- D-SQUAME Score (skin surface; [4]): 1.97
- D-SQUAME Score (skin surface; 1% active in ANEW creme base vehicle): 2.28
- D-SQUAME Score (skin surface; 2.% active in ANEW creme base vehicle): 2.56
- PII (skin irritation) [2, 5]: 0.00
- PII (skin irritation) ([2]; 1% active in ANEW creme base vehicle without glycolic acid): 0.00
- PII (skin irritation) ([2]; 2.% active in ANEW creme base vehicle without glycolic acid): 0.00
- Bacteriocidal activity (in words) [3]: bacteriocidal against all of the test microorganisms

SMILES: O=C(O)c1cc(Cl)ccc1O [5-Chlorosalicylic Acid, 5-chlorosalicylic acid]
- Diameter of Zone of Inhibition (Propionibacterium acnes; 0.5%): 4.87 Millimeters
- Diameter of Zone of Inhibition (Propionibacterium acnes; 1.0%): 17.62 Millimeters
- Activity against Propionibacterium acnes compared with salicylic acid (Propionibacterium acnes; results of Tables 2 through 4): more active
- Diameter of Zone of Inhibition ([1]; 0.5%): 3.59 Millimeters
- Diameter of Zone of Inhibition ([1]; 1.0%): 13.15 Millimeters
- Diameter of Zone of Inhibition (Staphylococcus aureus; 0.5%): 0 Millimeters
- Diameter of Zone of Inhibition (Staphylococcus aureus; 1.0%): 3.04 Millimeters
- Diameter of Zone of Inhibition (Escherichia coli; 0.5%): 0 Millimeters
- Diameter of Zone of Inhibition (Escherichia coli; 1.0%): 0 Millimeters
- Diameter of Zone of Inhibition (Pseudomonas aeruginosa; 0.5%): 0 Millimeters
- Diameter of Zone of Inhibition (Pseudomonas aeruginosa; 1.0%): 0 Millimeters
- Diameter of Zone of Inhibition (Candida albicans; 0.5%): 0 Millimeters
- Diameter of Zone of Inhibition (Candida albicans; 1.0%): 2.96 Millimeters
- Diameter of Zone of Inhibition (Aspergillus niger; 0.5%): 0 Millimeters
- Diameter of Zone of Inhibition (Aspergillus niger; 1.0%): 3.38 Millimeters
- D-SQUAME Score (skin surface; [4]): 2.44
- Exfoliation activity compared with 0.5% salicylic acid (skin surface; D-SQUAME, Table 5): significantly more exfoliating
- Exfoliation activity compared with 1.0% salicylic acid (skin surface; D-SQUAME, Table 5): equivalent in exfoliation activity
- Exfoliation activity compared with 2.0% salicylic acid (skin surface; D-SQUAME, Table 5): equivalent in exfoliation activity
- Exfoliation activity compared with the base vehicle (containing no CLSA or SA) (skin surface; D-SQUAME, Table 5): significantly more exfoliating
- Exfoliation activity compared with the combination of 0.5% chlorosalicylic acid/0.5% salicylic acid (skin surface; D-SQUAME, Table 5): equivalent in exfoliation activity
- PII (skin irritation) [2, 5]: 0.00
- Mutagenic activity (Salmonella typhimarium): non-mutagenic
